PubChem BioAssay (NCI)
Where “and” joins values, the source holds several entries; their conditions need not be identical. Equal entries are not always repeated.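 Cells were grown in 96-well plates and exposed to each compound for 48 hours at five concentrations; endpoints were interpolated linearly between bracketing concentrations, or set to the highest concentration if not reached. The concentration for 50% growth inhibition is given as GI50. TGI is the concentration that stops growth completely.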

Assays:
Assay in all cases: growth of human tumour cells (NCI), 48 h
[1] = tested on: A549 NSCLC
[2] = tested on: COLO 205 colon
[3] = tested on: HCT-116 colon
[4] = tested on: HCT-15 colon
[5] = tested on: HT29 colon
[6] = tested on: MALME-3M melanoma
[7] = tested on: PC-3 prostate
[8] = tested on: SK-MEL-5 melanoma
[9] = tested on: UACC-257 melanoma
[10] = tested on: UACC-62 melanoma

Row | SMILES | GI50 [1] | TGI [1] | GI50 [2] | TGI [2] | GI50 [3] | TGI [3] | GI50 [4] | TGI [4] | GI50 [5] | TGI [5] | GI50 [6] | TGI [6] | GI50 [7] | TGI [7] | GI50 [8] | TGI [8] | GI50 [9] | TGI [9] | GI50 [10] | TGI [10]
1 | CCCCCCc1cc2cc(-c3nc4ccccc4[nH]3)c(=Nc3ccccc3C)oc2cc1O | 2.44 µM | 6.29 µM | > 100 µM | > 100 µM | 1.83 µM | 3.63 µM | 2.17 µM | 5.34 µM | > 100 µM | > 100 µM | 1.81 µM | 3.62 µM | 2.3 µM | 7.98 µM | 2 µM | 4.96 µM | 2.6 µM | 7.01 µM | 1.62 µM | 3.41 µM
2 | Cc1ccc2c(c1)c1nc3cc(C)c(C)cc3nc1n2CCN(C)C | 1.79 µM | 4.72 µM | 1.24 µM | 4.6 µM | 0.63 µM | 10.1 µM | 1.91 µM | 7.75 µM | 1.23 µM | 6.54 µM | 1.73 µM | 3.76 µM | 2.32 µM | 6.82 µM | 1.77 µM | 3.18 µM | 2.2 µM | 5.48 µM | 1.59 µM | 3.57 µM
3 | O=[N+]([O-])c1ccccc1N=Nc1c(O)[nH]c2ccc(Br)cc12 | – | 21 µM | – | 33.9 µM | – | > 67 µM | – | > 56 µM | – | 29.3 µM | – | > 100 µM | – | 33.3 µM | – | > 37.7 µM | – | > 50.3 µM | – | 66.8 µM
4 | CCCCCc1nc2c(c3c1CCCC3)CCCC2 | 11.9 µM | 64 µM | 10.2 µM | 22.1 µM | 3.01 µM | 15.2 µM | 8.94 µM | 26.8 µM | 1.85 µM | 14.8 µM | 11.3 µM | 25.7 µM | 8.04 µM | 31.1 µM | 6.19 µM | 18.8 µM | 9.7 µM | 31.6 µM | 12.1 µM | 29.2 µM
5 | C#CCN(Cc1nc2cc(C(F)(F)F)ccc2nc1-c1ccccc1)c1ccc(OC(F)(F)F)cc1 | 63.8 µM | > 100 µM | 45.4 µM | > 100 µM | 25 µM | > 100 µM | > 100 µM | > 100 µM | 40.3 µM | > 100 µM | > 100 µM | > 100 µM | 44.4 µM | > 100 µM | 34 µM | > 100 µM | > 100 µM | > 100 µM | 48.6 µM | > 100 µM
6 | Clc1ccc(/C=C/c2cc(N3CCOCC3)c3cc(Cl)c(Cl)cc3n2)cc1 | > 100 µM | > 100 µM | > 100 µM | > 100 µM | > 100 µM | > 100 µM | > 100 µM | > 100 µM | > 100 µM | > 100 µM | > 100 µM | > 100 µM | 1.61 µM | > 100 µM | > 100 µM | > 100 µM | > 100 µM | > 100 µM | > 100 µM | > 100 µM
7 | CC(C)c1c(C(=O)Nc2ccccc2)c(-c2ccccc2)c(-c2ccc(F)cc2)n1CC[C@@H]1CC=CC(=O)O1 | 1.99 µM | 4.6 µM | 1.68 µM | 3.5 µM | 0.278 µM | 1.23 µM | 1.88 µM | 3.85 µM | 1.62 µM | 3.66 µM | 1.76 µM | 3.41 µM | 1.31 µM | 3.86 µM | 1.58 µM | 2.94 µM | 1.97 µM | 3.92 µM | 1.7 µM | 3.37 µM
8 | O=C(Nc1ccccc1)c1nn(-c2cc(S(=O)(=O)O)c([N+](=O)[O-])cc2Cl)[n+](-c2cc(S(=O)(=O)[O-])c([N+](=O)[O-])cc2Cl)n1 | – | > 100 µM | – | > 100 µM | – | > 100 µM | – | > 100 µM | – | > 100 µM | – | > 100 µM | – | > 100 µM | – | > 100 µM | – | > 100 µM | – | > 100 µM
9 | C=C(C)C1Cc2c(cc(OC)c3c(=O)c4cccc(O)c4oc23)O1 (stereo not drawn) | – | 88.8 µM | – | > 100 µM | – | 39.4 µM | – | > 100 µM | – | > 100 µM | – | 48.4 µM | – | > 100 µM | – | 30.1 µM | – | > 100 µM | – | 31.9 µM
10 | Oc1ccc(CN2CCC(N3CCOCC3)CC2)c2cccnc12 | > 100 µM | > 100 µM | 49.8 µM | > 100 µM | 34.4 µM | > 100 µM | 36.5 µM | > 100 µM | 100 µM | > 100 µM | 29.1 µM | > 100 µM | 46.2 µM | > 100 µM | 23.2 µM | 57 µM | 32.3 µM | 76.5 µM | 21.3 µM | 50.2 µM
11 | N/C(=C\C(=O)n1nc(-c2ccccc2)cc1N)c1ccccc1 | 7.29 µM | 81.3 µM | 3.6 µM | 14.7 µM | 3.77 µM | 16 µM | 4.09 µM | 74.6 µM | 3.46 µM | 13 µM | 7.51 µM | 25.2 µM | 4.35 µM | 28.9 µM | 3.01 µM | 12.1 µM | 17.4 µM | 70.3 µM | 3.09 µM | 19.2 µM
12 | Cn1ccnc1C(=O)/C=C/c1ccc(C(=O)Nc2ccc(S(F)(F)(F)(F)F)cc2)cc1 | 3.81 µM | > 14.3 µM | 2 µM | 12.3 µM | 0.854 µM | > 14.3 µM | 0.799 µM | 4.92 µM | 1.88 µM | > 14.3 µM | 5.76 µM | > 14.3 µM | 1.9 µM | > 14.3 µM | 0.603 µM | 5.99 µM | 2.18 µM | > 14.3 µM | 2.28 µM | > 14.3 µM
13 | S=C(N/N=C(/c1ccccc1)c1ccccn1)N1CCCCC1 | 0.00361 µM | 1.71 µM and 3.88 µM | < 0.001 µM | – | < 0.001 µM | 1.6 µM and 1.56 µM | < 0.001 µM | 2.22 µM and 3.94 µM | 0.0345 µM | 2.17 µM and 2.44 µM | 0.00735 µM | 2.27 µM and 2.2 µM | < 0.001 µM | 1.6 µM and 4.08 µM | – | 1.38 µM and 1.56 µM | < 0.001 µM | 1.04 µM and 1.16 µM | 0.965 µM | 3.16 µM
